The results in this text go back to ChEMBL document CHEMBL5380834, “Design, Synthesis, and Biological Evaluation of Androgen Receptor (AR) Antagonist-Heat Shock Protein 90 (Hsp90) Inhibitor Conjugates for Targeted Therapy of Castration-Resistant Prostate Cancer” (J Med Chem, 2023).

SMILES strings stand for the structures. Activity calls are given as the source filed them. No cut-off for these calls is given here.

The nature of series [1]: Toxicity in ICR mouse assessed as kidney damage at 30 to 50 mg/kg, iv administered every second day for 14 days. The format is organism-based. The conditions noted are these: in vivo, 336 h, dose 30-50 mg/kg, time 14 day.
Series [2] is described as follows: Biodistribution in BALB/c mouse kidney xenografted with human 22Rv1 cells at 2.5 mg/kg, iv measured at 0.5 to 1 hrs. The format is ADME, organism-based, CWR22R. To be noted: in vivo, time 0.5-1 hrs. (In general: Xenograft models place foreign cells or tissue in a host animal.)
In series [3] the test system is CWR22R. The series is described as follows: Antitumor activity against human 22Rv1 cells xenografted in BALB/c nude mouse assessed as tumor growth inhibition at 2.5 mg/kg, ip administered once every 4th day for 3 weeks. The format is functional. To be noted: 22Rv1, 504 h, read-out: TGI.
Series [4] is described as follows: Downregulation of AR-regulated FKBP5 protein level in human LNCaP cells at 300 nM measured for 48 hrs in presence of AR agonist, R1881 in charcoal stripped serum by Western blot analysis relative to control. The class given is functional. In general terms: In western blotting, separated proteins are transferred to a membrane and probed.
The nature of series [5]: Toxicity in ICR mouse assessed as heart damage at 30 to 50 mg/kg, iv administered every second day for 14 days. The format is organism-based. The conditions noted are these: in vivo, 336 h, dose 30-50 mg/kg, time 14 day.
Series [6] concerns LNCaP. The series is described as follows: Antitumor activity against human LNCaP cells xenografted in BALB/c nude mouse assessed as downregulation of PSA level at 5 mg/kg, ip administered once every 4th day for 3 weeks and measured at 2 hrs post dose. The class given is functional, organism-based.
The test system of series [7] is CWR22R. The series is described as follows: Antitumor activity against human 22Rv1 cells xenografted in BALB/c nude mouse assessed as downregulation of AR-V7 level at 2.5 mg/kg, ip administered once every 4th day for 3 weeks. The class given is functional, organism-based.
Series [8] is described as follows: Biodistribution in BALB/c mouse heart xenografted with human 22Rv1 cells at 2.5 mg/kg, iv measured at 0.5 to 1 hrs. The class given is ADME, organism-based, CWR22R. To be noted: in vivo, time 0.5-1 hrs.
Series [9] is described as follows: Toxicity in BALB/c nude mouse xenografted with human LNCaP cells assessed as animal weight loss at 2.5 mg/kg, ip administered once every 4th day for 3 weeks. The format is organism-based. The conditions noted are these: in vivo, 504 h.
In series [10] the test system is CWR22R. The series is described as follows: Cytotoxicity against human 22Rv1 cells assessed as inhibition of cell growth incubated for 5 days in presence of AR agonist, R1881 by WST-1 assay. The class given is functional, cell-based. To be noted: 22Rv1, 120 h.
A short description of series [11]: Downregulation of AR-regulated TMPRSS2 protein level in human LNCaP cells at 300 nM measured for 48 hrs in presence of AR agonist, R1881 in charcoal stripped serum by Western blot analysis relative to control. The class given is functional.
Series [12] is described as follows: Toxicity in ICR mouse assessed as animal weight loss at 30 to 50 mg/kg, iv administered every second day for 14 days. The class given is organism-based. To be noted: in vivo, 336 h, dose 30-50 mg/kg, time 14 day.
The nature of series [13]: Toxicity in ICR mouse assessed as testis damage at 30 to 50 mg/kg, iv administered every second day for 14 days. The format is organism-based. To be noted: in vivo, 336 h, dose 30-50 mg/kg, time 14 day.
Series [14] is described as follows: Biodistribution in BALB/c mouse lung xenografted with human 22Rv1 cells at 2.5 mg/kg, iv measured at 0.5 to 1 hrs. To be noted: in vivo, time 0.5-1 hrs. The format is ADME, organism-based, CWR22R.
Series [15] can be described thus: Downregulation of AR-regulated PSA protein level in human LNCaP cells at 300 nM measured for 48 hrs in presence of AR agonist, R1881 in charcoal stripped serum by Western blot analysis relative to control. The class given is functional.
In series [16] the test system is LNCaP. The series is described as follows: Downregulation of AR-regulated PSA protein level in human LNCaP cells measured for 48 hrs in presence of AR agonist, R1881 in charcoal stripped serum by Western blot analysis. The conditions noted are these: dose 300-1000 nM. The class given is functional, cell-based.
Series [17] in a line: Biodistribution in BALB/c mouse prostate gland xenografted with human 22Rv1 cells at 2.5 mg/kg, iv measured at 0.5 to 1 hrs. The format is ADME, organism-based, CWR22R. To be noted: in vivo, time 0.5-1 hrs.
Series [18] can be described thus: Biodistribution in BALB/c mouse tumor xenografted with human 22Rv1 cells at 2.5 mg/kg, iv measured at 0.5 to 1 hrs. To be noted: in vivo, time 0.5-1 hrs. The format is ADME, organism-based, Neoplasm, CWR22R.
For series [19], the system named is CWR22R. The series is described as follows: Induction of apoptosis in human 22Rv1 cells assessed as increase in PARP level at 1 uM measured after 48 hrs by Western blot analysis. The class given is functional, cell-based.

One may read the IC50 as the concentration that gives 50% inhibition. For `CC(C)c1cc(-c2n[nH]c(=O)n2-c2ccc(CN3CCN(CC4CCN(c5ccc(C(=O)N[C@H]6CC[C@H](Oc7ccc(C#N)c(Cl)c7)CC6)nn5)CC4)CC3)cc2)c(O)cc1O`, the Activity entry is “Non-Toxic” in series [1]; over 50% in series [4]; “Non-Toxic” in series [5]; 10% in series [9]; over 50% in series [11]; “Non-Toxic” in series [12]. Besides, the Activity result in [13] was “Non-Toxic”; in series [15], over 50%; in series [16], “Dose-Dependent Effect”. The Drug uptake entry in series [2], in [8], in [14], in series [17] and in [18] was “Active” each time. The inhibition in vivo at 2.5 mg/kg in series [3] was 50%. In addition, the result in series [6], in series [7] and in series [19] was Active. Moreover, in [10], the IC50 turned out to be 0.0265 µM.
